Reference: patent publication US7465752B2, “Pentenoic acid derivatives, processes for the preparation thereof, pharmaceutical compositions comprising them, and therapeutic applications thereof” (Merck Patent GmbH, priority 2004, dated 2008)

Tests used:
[1] = target: chimeric protein PPARα-GaI4 (Homo sapiens, UniProt Q07869); conditions: 50 μM, 18 hours contact, CV-1 cells
Description: (§1) The measurement of the PPAR activation was performed according to a lo technique described by Lehmann et al. (1995, J. Biol. Chem., 270, 12953-12956).
(§2) CV-1 cells (monkey kidney cells) are co-transfected with an expression vector for the chimeric proteins PPARα-GaI4 or PPARγ-GaI4 and with a “reporter” plasmid that allows the expression of the luciferase gene placed under the control of a promoter comprising GaI4 response elements.
(§3) The cells are plated into 96-well microplates and co-transfected using a commercial reagent with the reporter plasmid (pG5-tk-pGL3) and the expression vector for the chimeric protein (PPARα-GaI4 or PPARγ-GaI4). After incubating for 4 hours, whole culture medium (comprising 10% foetal calf serum) is added to the wells. After 24 hours, the medium is removed and replaced with whole medium comprising the test products (50 μM final). The products are left in contact with the cells for 18 hours. The cells are then lysed and the luciferase activity is measured using a luminometer.

[2] = target: chimeric protein PPARγ-GaI4 (Homo sapiens, UniProt P37231); conditions: 50 μM, 18 hours contact, CV-1 cells
Chain of chimeric protein PPARγ-GaI4 (P37231 238-503 limits assumed, change not shown): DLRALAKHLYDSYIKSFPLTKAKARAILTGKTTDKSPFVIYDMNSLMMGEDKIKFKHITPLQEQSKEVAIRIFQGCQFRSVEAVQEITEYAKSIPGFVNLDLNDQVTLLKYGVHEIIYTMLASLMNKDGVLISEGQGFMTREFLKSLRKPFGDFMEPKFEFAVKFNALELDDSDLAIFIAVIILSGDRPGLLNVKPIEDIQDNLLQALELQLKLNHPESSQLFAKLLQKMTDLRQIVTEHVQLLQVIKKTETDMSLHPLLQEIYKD
Description: as §1, §2, §3

[3] = tested on: GaI4 alone; conditions: vector expressing GaI4 alone, in the presence of the product
Description: as §2, §3

[4] = tested on: db/db mice; conditions: 100 mg/kg/day orally for 15 days
Description: The antidiabetic and hypolipidaemiant activity of the compounds was determined orally on db/db mice.
Nine-week-old db/db mice are treated orally for 15 days with the compound of Example 6 (100 mg/kg/day). Each group studied comprises seven animals. After treatment for 15 days, retro-orbital samples are taken under mild anaesthesia and after fasting for four hours.
The following parameters were measured:
Assay of the glycaemia (glucose oxidase) and of the lipid parameters on the sera at D15 (COBAS): triglycerides, total cholesterol (CHOL), HDL cholesterol (HDL-C) and free fatty acids (FFA) (BioMérieux and Waco Chemicals assay kit).
The measurements reported represent mean values±standard error.

[5] = serum at D15, fasted 4 hours, mean ± standard error

Chain of chimeric protein PPARα-GaI4 (Q07869 239-466 limits assumed, change not shown): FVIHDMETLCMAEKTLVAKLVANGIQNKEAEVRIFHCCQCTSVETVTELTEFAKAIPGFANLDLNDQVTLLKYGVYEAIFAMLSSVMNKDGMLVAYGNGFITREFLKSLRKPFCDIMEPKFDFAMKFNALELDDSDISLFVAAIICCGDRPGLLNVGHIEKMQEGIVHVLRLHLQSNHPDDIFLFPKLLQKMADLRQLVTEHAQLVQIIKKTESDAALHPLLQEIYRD

SMILES: O=C(O)[C@@H](CC=Cc1ccccc1)Oc1ccc(-c2cc3ccccc3s2)cc1 (racemic) [Example 6, (R,S)-2-{[4-(benzo[b]thiophen-2-yl)phenyl]oxy}-5-phenylpent-4-enoic acid]
- PPAR activation factor (reporter gene expression relative to control cells) [1]: 7
- PPAR activation factor (reporter gene expression relative to control cells) [2]: 21
- luciferase activity in absence of the PPAR α or γ ligand binding domain [3]: zero
- FFA, % var. (percentage of variation versus control) ([4]; D15, not significant): −10% (ns)
- CHOL, % var. (percentage of variation versus control) ([4]; D15, p < 0.01 versus control): −20% (**)
- Glycaemia, % var. (percentage of variation versus control) ([4]; D15, p < 0.01 versus control): −50% (**)
- HDL-C, % var. (percentage of variation versus control) ([4]; D15, p < 0.01 versus control): −25% (**)
- Triglycerides, % var. (percentage of variation versus control) ([4]; D15, p < 0.05 versus control): −31% (*)
- CHOL (total cholesterol) [4, 5]: 2.98 ± 0.25 mM
- FFA (free fatty acids) [4, 5]: 0.78 ± 0.18 mM
- Glycaemia [4, 5]: 14.93 ± 4.29 Mm
- HDL-C [4, 5]: 2.31 ± 0.20 Mm
- Triglycerides [4, 5]: 1.47 ± 0.59 mM
